Assay results reported in patent US4863902A, “Treatment of cancer” (Wakunaga Seiyaku Kabushiki Kaisha, priority 1985, dated 1989).

Assays:
[1] = tested on: Colon adenocarcinoma 26 (mouse colon adenocarcinoma); assay: Tumor weight of transplanted Colon adenocarcinoma 26 in BALB/c mice; type: in vivo; details: Table 5, 5-FU 150 mg/Kg, hEGF-II 100 μg/Kg subcutaneous, average ± standard error of 6-12 mice
Method: After BALB/c mice were preliminarily fed in a thermostat (23°±0.5° C.), humidistat (60±5%) room for 1 week, those which appear to be healthy weighing 18-20 g were provided for the present experiment in 6-12 mice per 1 group.
(§1) Colon adenocarcinoma 26 (mouse colon adenocarcinoma) was minced into pieces and about 0.1 to 0.2 ml thereof was transplanted subcutaneously on the right side of mouse abdomen by a cell transplanting needle (trocker). Six days after transplantation, the size of tumor, namely longer diameter (a mm) and shorter diameter (b mm) of tumor were measured and the tumor weight was calculated according to the formula shown below [Instruction 14 (NCI) 1980].
(§2) Tumor weight (mg)=ab^2 /2
Before carrying out experiments, tumor weights were measured immediately before administration of the compounds and the mice were grouped into 3 groups by use of random numbers so that there may be no difference in average value of the tumor weights on initiation of experiments between the respective groups to make even the average values of tumor weights of the respective groups, and thereafter the compounds were administered to the respective groups.
In this FIGURE, the axis of abscissa indicates the experimental days with the day of compound administration being the day 1, and the axis of ordinate indicates tumor cell growth ratio which is the ratio of the tumor weight after elapse of the respective days relative to the tumor weight on the day 1 as being 100%.

[2] = tested on: Colon adenocarcinoma 38 (mouse colon adenocarcinoma); assay: Tumor weight of transplanted Colon adenocarcinoma 38 in C57BL/6 mice; type: in vivo; details: for Tumor weight (day 1 = 100): 5-FU 150 mg/Kg
Method: as §1, with “38” for “26”, “Eleven” for “Six”
as §2
In the Table, days indicate the experimental days with the day of compound administration being as the day 1, and the tumor weight immediately before administration of compound of day 1 is made 100. The respective values show the average value ± standard error of case numbers of 10 to 20, in the Table, the marks of (*), * and *** indicate the statistical significance difference of the combined administration group relative to the 5-FU single administration group (the definition of P is as defined above).

[3] = tested on: P388/5-FU (mouse leukemia resistant to 5-FU); assay: Tumor weight of solid tumor of 5-FU resistant mouse leukemia in CDF1 mice; type: in vivo; details: 5-FU 150 mg/Kg
Source text: CDF1 strain male mice were employed. The feeding conditions, etc., were the same as in Experimental Example 1.
Of P388 (mouse leukemia), the strain having chemical resistance to 5-FU (P388/5-FU) was previously grown in the abdomen of CDF1 mouse. Eight days after transplantation into the abdomen, ascites (containing tumor cells) were collected, diluted with a liquid medium and transplanted subcutaneously at the axilla of mouse in 3×10^6 cells per mouse. Eight days after transplantation, the size of tumor was measured according to the same method as in Example 1 (Colon 26) and the tumor weight was calculated.
The grouping operation of mouse on initiation of experiments was conducted in the same manner as in Experimental Example 1. As for administration of compounds, the same procedure as in Experimental Example 1 was used. However, the administration was effected twice on the day 1 and the day 3.

[4] = tested on: mouse ovarian tumor M5076; assay: Tumor weight of solid tumor of mouse ovarian tumor in BDF1 mice; type: in vivo; details: Table 10, 5-FU 150 mg/Kg, hEGF, [Leu^21 ]-hEGF or hEGF-II 100 μg/Kg subcutaneous, average ± standard error
Method: BDF1 male mice were employed. The feeding conditions were the same as in Experimental Example 1.
Mouse ovarian tumor M5076 was transplanted subcutaneously at the axialla of mouse in 1-2×10^6 cells per mouse. 12 days after transplantation, the size of tumor was measured according to the same method as in Experimental Example 1 (Colon 26) and the tumor weight was calculated.
The grouping operation on initiation of Experiments was conducted in the same manner as in Experimental Example 1. The compounds were administered in the same manner as in Experimental Example 9.
The experiment was carried out in the samme manner as in Experimental Examples 1, 7 and as in Experimental Example 17 for others.

[5] = Body weight (minus tumor weight) of Colon 26 bearing mice; type: in vivo, mouse; details: Experimental Example 5; 150 mg/Kg 5-FU, 100 μg/Kg hEGF subcutaneous
Method: That is, in Experimental Example 1, with the value of the body weight of the experimental animal immediately before administration of the drug from which the tumor weight is detracted as being 100, the ratio of the value of the total body weight of the experimental animal from which the tumor weight is detracted on the respective days after administration of the drug relative to this weight was calculated to obtain the results shown in FIG. 4. The symbols in the Figure are the same as in Experimental Example 1.

O=c1[nH]cc(F)c(=O)[nH]1 [5-FU, 5-fluorouracil]
Tumor weight (day 1 = 100) ([1]; day 2): 121.1 ± 9.6 | Tumor weight (day 1 = 100) ([1]; day 3): 120.4 ± 7.1 | Tumor weight (day 1 = 100) ([1]; day 4): 124.0 ± 9.6 | Tumor weight (day 1 = 100) ([1]; day 5): 122.5 ± 10.7 | Tumor weight (day 1 = 100) ([1]; day 6): 129.7 ± 11.5 | Tumor weight (day 1 = 100) ([1]; day 7): 156.8 ± 14.1 | Tumor weight (day 1 = 100) ([2]; Table 1, day 2, hEGF 100 μg/Kg subcutaneous on day 1, average ± standard error): 106.3 ± 31.8 | Tumor weight (day 1 = 100) ([2]; Table 1, day 4, hEGF 100 μg/Kg subcutaneous on day 1, average ± standard error): 84.5 ± 7.0 | Tumor weight (day 1 = 100) ([2]; Table 1, day 5, hEGF 100 μg/Kg subcutaneous on day 1, average ± standard error): 75.4 ± 10.3 | Tumor weight (day 1 = 100) ([2]; Table 1, day 6, hEGF 100 μg/Kg subcutaneous on day 1, average ± standard error): 86.2 ± 9.5 | Tumor weight (day 1 = 100) ([2]; Table 1, day 7, hEGF 100 μg/Kg subcutaneous on day 1, average ± standard error): 121.1 ± 13.0 | Tumor weight (day 1 = 100) ([2]; Table 1, day 8, hEGF 100 μg/Kg subcutaneous on day 1, average ± standard error): 147.3 ± 16.0 | Tumor weight (day 1 = 100) ([2]; Table 1, day 9, hEGF 100 μg/Kg subcutaneous on day 1, average ± standard error): 210.9 ± 22.9 | Tumor weight (day 1 = 100) ([2]; Table 11, day 2, FGF 100 μm/10 ml/Kg subcutaneous, average ± standard error of 6-8 mice): 102.6 ± 6.7 | Tumor weight (day 1 = 100) ([2]; Table 11, day 3, FGF 100 μm/10 ml/Kg subcutaneous, average ± standard error of 6-8 mice): 99.7 ± 7.2 | Tumor weight (day 1 = 100) ([2]; Table 11, day 4, FGF 100 μm/10 ml/Kg subcutaneous, average ± standard error of 6-8 mice): 94.9 ± 8.7 | Tumor weight (day 1 = 100) ([2]; Table 11, day 5, FGF 100 μm/10 ml/Kg subcutaneous, average ± standard error of 6-8 mice): 158.6 ± 22.8 | Tumor weight ratio(%) ([2]; Table 12, day 4 after compound administration, weight before administration = 100, Tegafur 400, 5-FU 150, Mitomycin-C 5, Cisplatin 5 mg/Kg, hIGF-II 50 μg/Kg subcutaneous, average ± standard error of 8-10 mice): 84.5 ± 7.0% | Tumor weight ratio(%) ([2]; Table 14, hTGFα 100 μg/10 ml/Kg with 5-FU, Tegafur, Mitomycin-C, Adriamycin or Cisplatin, as described for Table 12): 84.6 ± 7.0% | Tumor weight ratio(%) ([2]; Table 15, day 4 after compound administration, hTGFβ and hEGF 100 μg/Kg with each compound having antitumor action): 103.3 ± 15.4% | Tumor weight % (average value ± standard error) ([2]; Table 20, 4 days after administration of 5-FU, 5-FU single subcutaneous): 93.9 ± 6.7% | Tumor weight (day 1 = 100) ([3]; Table 2, day 2, hEGF 100 μg/Kg subcutaneous on day 1 and day 3, average ± standard error of 9 mice): 126.2 ± 5.5 | Tumor weight (day 1 = 100) ([3]; Table 2, day 3, hEGF 100 μg/Kg subcutaneous on day 1 and day 3, average ± standard error of 9 mice): 232.7 ± 15.9 | Tumor weight (day 1 = 100) ([3]; Table 2, day 4, hEGF 100 μg/Kg subcutaneous on day 1 and day 3, average ± standard error of 9 mice): 280.0 ± 31.7 | Tumor weight (day 1 = 100) ([3]; Table 3, day 2, [Leu^21 ]-hEGF or hEGF-II 100 μg/Kg subcutaneous on day 1 and day 3, average ± standard error): 121.2 ± 10.5 | Tumor weight (day 1 = 100) ([3]; Table 3, day 3, [Leu^21 ]-hEGF or hEGF-II 100 μg/Kg subcutaneous on day 1 and day 3, average ± standard error): 232.7 ± 15.9 | Tumor weight (day 1 = 100) ([3]; Table 3, day 4, [Leu^21 ]-hEGF or hEGF-II 100 μg/Kg subcutaneous on day 1 and day 3, average ± standard error): 280.0 ± 31.7 | Tumor weight (day 1 = 100) ([4]; day 2): 114.7 ± 7.5 | Tumor weight (day 1 = 100) ([4]; day 3): 115.2 ± 8.3 | Tumor weight (day 1 = 100) ([4]; day 4): 134.6 ± 8.9 | Tumor weight (day 1 = 100) ([4]; day 5): 187.3 ± 19.3 | Tumor weight (day 1 = 100) ([4]; day 6): 230.1 ± 29.4 | body weight reduction inhibiting effect (body weight minus tumor weight, FIG. 4) [5]: no inhibiting effect of weight reduction could be recognized
